Series [1] can be described thus: Metabolic stability in mouse liver microsomes assessed as intrinsic clearance incubated for 60 mins in presence of NADPH-regenerating system. It counts as ADME, Microsome. The conditions noted are these: liver microsomes, read-out: CLH. A general note: Microsomes from liver hold many membrane-bound enzymes, among them those of drug oxidation.
The nature of series [2]: MRT (0 to t) in rat at 5 mg/kg, iv measured upto 24 hrs by LC-MS/MS analysis. It counts as ADME, organism-based. As to conditions: in vivo.
Series [3] concerns CWR22R. As to the kind of experiment: Downregulation of MCM10 gene expression in human 22Rv1 cells at 1 uM measured after 24 to 36 hrs by RNA sequencing analysis. The conditions noted are these: time 24-36 hrs. It counts as functional, cell-based.
Series [4] concerns CWR22R. As to the kind of experiment: Downregulation of AR-v7 level in human 22Rv1 cells at 0.5 to 10 uM measured after 36 hrs by Western blot analysis. It counts as functional, cell-based. As to conditions: dose 0.5-10 µM.
In series [5] the test system is CWR22R. As to the kind of experiment: Downregulation of PCNA gene expression in human 22Rv1 cells at 1 uM measured after 24 to 36 hrs by RNA sequencing analysis. It counts as functional, cell-based. As to conditions: time 24-36 hrs.
In series [6] the test system is CWR22R. In words: Downregulation of DNMT1 gene expression in human 22Rv1 cells at 1 uM measured after 24 to 36 hrs by RNA sequencing analysis. It counts as functional, cell-based. The conditions noted are these: time 24-36 hrs.
The test system of series [7] is CWR22R. In words: Downregulation of UHRF1 gene expression in human 22Rv1 cells at 1 uM measured after 24 to 36 hrs by RNA sequencing analysis. It counts as functional, cell-based. As to conditions: time 24-36 hrs.
Series [8] relates to CWR22R. In words: Downregulation of AR-v7 level in human 22Rv1 cells at 0.5 to 10 uM by Western blot analysis. In kind it is functional, cell-based. As to conditions: dose 0.5-10 µM, time 24-36 hrs, TDE = time-dependent effect. A general note: In western blotting, separated proteins are transferred to a membrane and probed.
Series [9] deals with CWR22R. In words: Downregulation of androgen receptor in human 22Rv1 cells at 0.5 to 10 uM by Western blot analysis. It counts as functional, cell-based. As to conditions: dose 0.5-10 µM, time 24-36 hrs, TDE = time-dependent effect.
The nature of series [10]: Clearance in rat at 5 mg/kg, iv measured upto 24 hrs by LC-MS/MS analysis. As to conditions: in vivo. In kind it is ADME, organism-based.
In series [11] the test system is CWR22R. In words: Downregulation of CDK2 gene expression in human 22Rv1 cells at 1 uM measured after 24 to 36 hrs by RNA sequencing analysis. It counts as functional, cell-based. The conditions noted are these: time 24-36 hrs.
Series [12] has as its system CWR22R. As to the kind of experiment: Downregulation of BRCA1 gene expression in human 22Rv1 cells at 1 uM measured after 24 to 36 hrs by RNA sequencing analysis. It counts as functional, cell-based. The conditions noted are these: time 24-36 hrs.
In series [13] the test system is CWR22R. As to the kind of experiment: Downregulation of BRCA2 gene expression in human 22Rv1 cells at 1 uM measured after 24 to 36 hrs by RNA sequencing analysis. It counts as functional, cell-based. As to conditions: time 24-36 hrs.

SMILES strings stand for the structures. Calls of active or inactive are those of the source. No cut-off for these calls is given here.

This note sets out measurements from ChEMBL document CHEMBL5331078, “1-Benzyloxy-5-phenyltetrazole derivatives highly active against androgen receptor-dependent prostate cancer cells” (Eur J Med Chem, 2023).

With `Clc1ccc(COn2nnnc2-c2ccc(Cl)cc2)cc1`, in [1], the microsomal CLint was found to be 21 µL/min/mg. The MRT last at 24 h in [2] was found to be 16.3 min. Besides, the outcome in the series with CWR22R [3], in the series with CWR22R [4], with CWR22R [5], with CWR22R [6], in the series on CWR22R [7] and with CWR22R [11] was Active. In addition, the outcome in the series with CWR22R [12] and in the series on CWR22R [13] was Active. For the same molecule, the Activity entry with CWR22R [8] and with CWR22R [9] was “Tde” each time. Also, the clearance in series [10] is 75.9 mL/min/kg.

In general, MRT last refers to the average time that molecules of a dose stay in the body. As a reminder, the clearance is the rate of elimination divided by the concentration. Read a high clearance as efficient removal.
